Data as given in patent US20150105252A1, “SUBSTITUTED PYRAZOLES AS HERBICIDES” (E I DU PONT DE NEMOURS AND COMPANY, priority 2013, published 2015).

How the values were obtained:
[1] = test system: velvetleaf; assay: Test A postemergence; assay type: in vivo, Abutilon theophrasti
Outline: (§1)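 Visual injury ratings, 0 = no effect to 100 = complete control, taken about 10 days after treatment against untreated controls. Test chemicals, in a non-phytotoxic surfactant-containing solvent, were sprayed onto soil preemergence or onto one- to two-leaf plants (2–10 cm) postemergence, in loam–sand soil under greenhouse conditions.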

[2] = test system: corn; assay: Test A postemergence; assay type: in vivo, Zea mays
Outline: as §1

[3] = test system: foxtail, giant; assay: Test A postemergence; assay type: in vivo, Setaria faberii
Outline: as §1

[4] = test system: pigweed; assay: Test A preemergence; assay type: in vivo, Amaranthus retroflexus; conditions: 0 to 100 scale
Outline: as §1

[5] = test system: barnyardgrass; assay: Test A preemergence; assay type: in vivo, Echinochloa crus-galli; conditions: 0 to 100 scale
Outline: as §1

[6] = test system: barnyardgrass; assay: Test A postemergence; assay type: in vivo, Echinochloa crus-galli; conditions: Postemergence
Outline: as §1

[7] = test system: corn; assay: Test A preemergence; assay type: in vivo, Zea mays; conditions: 0 to 100 scale
Outline: as §1

[8] = test system: crabgrass, large; assay: Test A preemergence; assay type: in vivo, Digitaria sanguinalis; conditions: 0 to 100 scale
Outline: as §1

[9] = test system: wheat; assay: Test A preemergence; assay type: in vivo, Triticum aestivum
Outline: as §1

[10] = test system: crabgrass, large; assay: Test A postemergence; assay type: in vivo, Digitaria sanguinalis
Outline: as §1

[11] = test system: wheat; assay: Test A postemergence; assay type: in vivo, Triticum aestivum
Outline: as §1

[12] = test system: morningglory; assay: Test A preemergence; assay type: in vivo, Ipomoea spp.; conditions: 0 to 100 scale
Outline: as §1

[13] = test system: velvetleaf; assay: Test A preemergence; assay type: in vivo, Abutilon theophrasti; conditions: 0 to 100 scale
Outline: as §1

[14] = test system: foxtail, giant; assay: Test A preemergence; assay type: in vivo, Setaria faberii; conditions: 0 to 100 scale
Outline: as §1

[15] = test system: pigweed; assay: Test A postemergence; assay type: in vivo, Amaranthus retroflexus
Outline: as §1

[16] = test system: morningglory; assay: Test A postemergence; assay type: in vivo, Ipomoea spp.
Outline: as §1

[17] = Postemergence, 500 g ai/ha, visual rating after approx. 10 days, 0 to 100 scale (0 no effect, 100 complete control)
[18] = postemergence, 125 g ai/ha, about 10 days, visual rating on 0 to 100 scale (0 no effect, 100 complete control)
[19] = Preemergence, 500 g ai/ha, 0 no effect, 100 complete control
[20] = preemergence, 125 g ai/ha, visual injury, approx. 10 days
[21] = 125 g ai/ha, 0 to 100 scale, 0 no effect, 100 complete control
[22] = 500 g ai/ha, visual rating after approx. 10 days, 0 to 100 scale (0 no effect, 100 complete control)
[23] = preemergence, 125 g ai/ha, visual injury, 0 to 100 scale, approx. 10 days
[24] = Postemergence, 1000 g ai/ha, visual rating after approx. 10 days, 0 to 100 scale (0 no effect, 100 complete control)
[25] = Preemergence, 1000 g ai/ha, 0 no effect, 100 complete control
[26] = 1000 g ai/ha, visual rating after approx. 10 days, 0 to 100 scale (0 no effect, 100 complete control)
[27] = Preemergence, 1000 g ai/ha, 0 to 100 scale, 0 no effect, 100 complete control

Cc1cc(C(=O)NCC(F)(F)F)nn1Cc1cc(F)cc(C(F)(F)F)c1 [Compound 13]
Velvetleaf plant response rating [1, 17]: 20 | Velvetleaf plant response rating [1, 18]: 0 | Corn plant response rating [2, 17]: 0 | Corn plant response rating [2, 18]: 0 | Foxtail, Giant plant response rating [3, 17]: 20 | Foxtail, Giant plant response rating [3, 18]: 0 | Pigweed plant response rating [4, 19]: 90 | Barnyardgrass plant response rating [5, 19]: 0 | Barnyardgrass plant response rating [5, 20]: 0 | Barnyardgrass plant response rating [6, 21]: 0 | Barnyardgrass plant response rating [6, 22]: 20 | Corn plant response rating [7, 19]: 0 | Corn plant response rating [7, 20]: 0 | Crabgrass, Large plant response rating [8, 19]: 70 | Crabgrass, Large plant response rating [8, 20]: 10 | Wheat plant response rating [9, 23]: 0 | Crabgrass, Large plant response rating [10, 17]: 30 | Crabgrass, Large plant response rating [10, 18]: 20 | Wheat plant response rating [11, 17]: 0 | Wheat plant response rating [11, 18]: 0 | Morningglory plant response rating [12, 20]: 0 | Velvetleaf plant response rating [13, 19]: 0 | Velvetleaf plant response rating [13, 20]: 0 | Foxtail, Giant plant response rating [14, 19]: 50 | Foxtail, Giant plant response rating [14, 20]: 0 | Pigweed plant response rating [15, 17]: 60 | Pigweed plant response rating [15, 18]: 40 | Morningglory plant response rating [16, 17]: 100 | Morningglory plant response rating [16, 18]: 50

Cc1cc(C(=O)NCC(F)(F)C(F)(F)F)nn1Cc1cccc(OC(F)(F)F)c1 [Compound 6]
Velvetleaf plant response rating [1, 17]: 40 | Velvetleaf plant response rating [1, 18]: 10 | Corn plant response rating [2, 17]: 0 | Corn plant response rating [2, 18]: 0 | Foxtail, Giant plant response rating [3, 17]: 20 | Foxtail, Giant plant response rating [3, 18]: 10 | Pigweed plant response rating [4, 19]: 50 | Pigweed plant response rating [4, 20]: 30 | Barnyardgrass plant response rating [5, 19]: 0 | Barnyardgrass plant response rating [5, 20]: 0 | Barnyardgrass plant response rating [6, 21]: 0 | Barnyardgrass plant response rating [6, 22]: 10 | Corn plant response rating [7, 19]: 0 | Corn plant response rating [7, 20]: 0 | Crabgrass, Large plant response rating [8, 19]: 20 | Crabgrass, Large plant response rating [8, 20]: 0 | Wheat plant response rating [9, 23]: 0 | Crabgrass, Large plant response rating [10, 17]: 30 | Crabgrass, Large plant response rating [10, 18]: 10 | Wheat plant response rating [11, 17]: 0 | Wheat plant response rating [11, 18]: 0 | Morningglory plant response rating [12, 19]: 0 | Morningglory plant response rating [12, 20]: 0 | Velvetleaf plant response rating [13, 19]: 0 | Velvetleaf plant response rating [13, 20]: 0 | Foxtail, Giant plant response rating [14, 19]: 20 | Foxtail, Giant plant response rating [14, 20]: 0 | Pigweed plant response rating [15, 17]: 60 | Pigweed plant response rating [15, 18]: 50 | Morningglory plant response rating [16, 17]: 60 | Morningglory plant response rating [16, 18]: 30

CCNC(=O)c1cc(C2CC2)n(Cc2cccc(OC(F)(F)F)c2)n1 [Compound 39]
Velvetleaf plant response rating [1, 24]: 10 | Corn plant response rating [2, 24]: 10 | Foxtail, Giant plant response rating [3, 24]: 10 | Pigweed plant response rating [4, 25]: 0 | Barnyardgrass plant response rating [5, 25]: 0 | Barnyardgrass plant response rating [6, 26]: 10 | Corn plant response rating [7, 25]: 0 | Crabgrass, Large plant response rating [8, 25]: 10 | Wheat plant response rating [9, 27]: 0 | Crabgrass, Large plant response rating [10, 24]: 10 | Wheat plant response rating [11, 24]: 0 | Morningglory plant response rating [12, 25]: 0 | Velvetleaf plant response rating [13, 25]: 0 | Foxtail, Giant plant response rating [14, 25]: 0 | Pigweed plant response rating [15, 24]: 40 | Morningglory plant response rating [16, 24]: 60

C#CCNC(=O)c1cc(CC)n(Cc2cccc(C(F)(F)F)c2)n1 [Compound 41]
Velvetleaf plant response rating [1, 24]: 10 | Corn plant response rating [2, 24]: 20 | Foxtail, Giant plant response rating [3, 24]: 20 | Pigweed plant response rating [4, 25]: 10 | Barnyardgrass plant response rating [5, 25]: 10 | Barnyardgrass plant response rating [6, 26]: 10 | Corn plant response rating [7, 25]: 0 | Crabgrass, Large plant response rating [8, 25]: 30 | Wheat plant response rating [9, 27]: 0 | Crabgrass, Large plant response rating [10, 24]: 20 | Wheat plant response rating [11, 24]: 10 | Morningglory plant response rating [12, 25]: 20 | Velvetleaf plant response rating [13, 25]: 0 | Foxtail, Giant plant response rating [14, 25]: 50 | Pigweed plant response rating [15, 24]: 30 | Morningglory plant response rating [16, 24]: 100

Cc1cc(C(=O)NCC(F)(F)F)nn1Cc1cccc(C(F)(F)F)c1 [Compound 7]
Velvetleaf plant response rating [1, 17]: 40 | Velvetleaf plant response rating [1, 18]: 30 | Corn plant response rating [2, 17]: 30 | Corn plant response rating [2, 18]: 10 | Foxtail, Giant plant response rating [3, 17]: 30 | Foxtail, Giant plant response rating [3, 18]: 0 | Pigweed plant response rating [4, 19]: 90 | Pigweed plant response rating [4, 20]: 0 | Barnyardgrass plant response rating [5, 19]: 40 | Barnyardgrass plant response rating [5, 20]: 0 | Barnyardgrass plant response rating [6, 21]: 0 | Barnyardgrass plant response rating [6, 22]: 30 | Corn plant response rating [7, 19]: 10 | Corn plant response rating [7, 20]: 0 | Crabgrass, Large plant response rating [8, 19]: 90 | Wheat plant response rating [9, 23]: 0 | Crabgrass, Large plant response rating [10, 17]: 40 | Crabgrass, Large plant response rating [10, 18]: 10 | Wheat plant response rating [11, 17]: 20 | Wheat plant response rating [11, 18]: 0 | Morningglory plant response rating [12, 19]: 40 | Morningglory plant response rating [12, 20]: 0 | Velvetleaf plant response rating [13, 19]: 10 | Velvetleaf plant response rating [13, 20]: 0 | Foxtail, Giant plant response rating [14, 19]: 70 | Foxtail, Giant plant response rating [14, 20]: 10 | Pigweed plant response rating [15, 17]: 50 | Pigweed plant response rating [15, 18]: 30 | Morningglory plant response rating [16, 17]: 100 | Morningglory plant response rating [16, 18]: 40

CCc1cc(C(=O)NC(C)(C)C)nn1Cc1cccc(OC(F)(F)F)c1 [Compound 59]
Velvetleaf plant response rating [1, 24]: 10 | Corn plant response rating [2, 24]: 10 | Foxtail, Giant plant response rating [3, 24]: 20 | Pigweed plant response rating [4, 25]: 0 | Barnyardgrass plant response rating [5, 25]: 0 | Barnyardgrass plant response rating [6, 26]: 10 | Corn plant response rating [7, 25]: 0 | Crabgrass, Large plant response rating [8, 25]: 10 | Wheat plant response rating [9, 27]: 0 | Wheat plant response rating ([9]; preemergence, 500 g ai/ha, visual injury after approx. 10 days, 0 to 100 scale (0 no effect, 100 complete control)): 10 | Crabgrass, Large plant response rating [10, 24]: 10 | Wheat plant response rating [11, 24]: 0 | Morningglory plant response rating [12, 25]: 0 | Velvetleaf plant response rating [13, 25]: 0 | Foxtail, Giant plant response rating [14, 25]: 10 | Pigweed plant response rating [15, 24]: 50 | Morningglory plant response rating [16, 24]: 50
